Laboratory results taken from patent US11129861B2, “Methods for treating inflammatory diseases” (OKCHUNDANG CO., LTD., priority 2017, dated 2021).
Marks after values point to notes of the source that are not given here.

Key:
[1] = system: xylene topically applied mice; assay: Anti-inflammatory assay: ear histopathology; format: in vivo; settings: 50 mg/kg orally, 11 days; xylene topically applied mice
Method: AR, KOG and SKOG were orally administered as same as antitussive and expectorant assays, once a day for 11 days before xylene topical applications. In addition, DEXA-water soluble granules were dissolved indistilled water as 1.5 mg/ml concentrations (0.1 mg/ml based on DEXA itself), and also orally administered in a volume of 10 ml/kg (as equivalence to 1 mg/kg based on DEXA itself), once a day for 11 days before xylene topical applications. In intact vehicle and xylene control mice, distilled water 10 ml/kg was orally administered, instead of AR, KOG, SKOG or DEXA to provide same restrain stresses, in the present experiment.
Acute inflammations were induced by single topical application of 0.03 ml of xylene (Duksan Pure Chemical Co. Ltd., Ansan, Korea) to the anterior surface of the right ear at 1 hour after last 11th test substance administration, as described previously with some modifications. Equal volume of saline was topically applied in intact vehicle mouse ears, instead of xylene, in our experiment.
After ear weight measurement, individual ear samples were fixed in 10% NBF, and crossly trimmed. Then embedded in paraffin, sectioned (3˜4 μm) and stained with Hematoxylin and eosin (H&E) for general histopathology or toluidine blue for mast cells, and after that the histopathological profiles of each sample were observed under light microscope. To more detail changes, mean total, epidermis and dermis thicknesses of the ear anterior surface, numbers of infiltrated inflammatory cells and mast cells on the dermis of ear (cells/mm^2), collagen occupied region percentages on the dermis (%/mm2) were analyzed using a computer assisted image analysis program, according to previously established methods, respectively. The histopathologist was blinds to group distribution when this analysis was made, and at least five repeated measurements in same histological specimens prepared were considered to calculate each mean histomorphometrical value, whenever possible, in this histopathological evaluation.

[2] = Body weight measurements, antitussive assay; format: in vivo, mice; settings: 50 mg/kg orally
Method: One-hundred thirty two 6-week male SPF/VAF CrljOri:CD1 [ICR] mice (OrientBio, Seungnam, Korea; body weight ranged in 29-32 g upon receipt) were prepared, and eight groups of 10 mice each were selected based on the body weights at 7 days after acclimatization based on the body weights (intact control: 34.30±1.74 g, ranged in 31.8-37.0 g; NH4OH treated mice: 34.17±1.32 g, ranged in 31.0-37.3 g), as follows.
SKOG were suspended in distilled water as 40, 20 and 10 mg/ml concentration, and orally administered in a volume of 10 ml/kg (as equivalence to 400, 200 and 100 mg/kg), once a day for 11 days before NH4OH exposure. In addition, AR and KOG were also suspended in distilled water as 40 mg/ml concentration, and orally administered in a volume of 10 ml/kg (as equivalence to 400, 200 and 100 mg/kg), once a day for 11 days before NH4OH exposure. TB was also dissolved in distilled water as 5 mg/ml concentrations, and also orally administered in a volume of 10 ml/kg (as equivalence to 50 mg/kg), once a day for 11 days before NH4OH exposure. In intact vehicle and NH4OH control mice, distilled water 10 ml/kg was orally administered, instead of AR, KOG, SKOG or TB to provide same restrain stresses, in the present experiment.
Changes of body weight were measured at once a day from 1 day before initial to end of last 11th oral administration of AR, KOG, SKOG or TB using an automatic laboratory animal weighing electronic balance (Precisa Instrument, Dietikon, Switzland). Animals were overnight fasted (about 18 hours, water was not restricted) before initial test substance administration and sacrifice to reduced individual differences from feeding, and also to reduce the individual body weight differences at start of experiment, the body weight gains during 11 days of oral administration of AR, KOG, SKOG or TB were calculated as follow Equation [1], in the current experiment. Body weight gains during 11 days of oral administration of test substances[B−A]=Body weights at last administration[B]−Body weights at first administration[A] Equation [1]

NH4OH exposured mice [3] = assay: Antitussive assay: trachea and lung histopathology; format: in vivo; settings: 50 mg/kg orally, 11 days
Method: SKOG were suspended in distilled water as 40, 20 and 10 mg/ml concentration, and orally administered in a volume of 10 ml/kg (as equivalence to 400, 200 and 100 mg/kg), once a day for 11 days before NH4OH exposure. In addition, AR and KOG were also suspended in distilled water as 40 mg/ml concentration, and orally administered in a volume of 10 ml/kg (as equivalence to 400, 200 and 100 mg/kg), once a day for 11 days before NH4OH exposure. TB was also dissolved in distilled water as 5 mg/ml concentrations, and also orally administered in a volume of 10 ml/kg (as equivalence to 50 mg/kg), once a day for 11 days before NH4OH exposure. In intact vehicle and NH4OH control mice, distilled water 10 ml/kg was orally administered, instead of AR, KOG, SKOG or TB to provide same restrain stresses, in the present experiment. After video image acquirement, some parts of individual lung (left lateral lobes) and trachea (3 mm from thyroid cartilages) were sampled and fixed in 10% neutral buffered formalin (NBF), and crossly trimmed. Then embedded in paraffin, sectioned (3˜4 μm) and stained with Hematoxylin and eosin (H&E) for general histopathology or toluidine blue for mast cells, and after that the histopathological profiles of each sample were observed under light microscope (Model Eclipse 80i, Nikon, Tokyo, Japan). […] The histopathologist was blinds to group distribution when this analysis was made, and at least five repeated measurements in same histological specimens prepared were considered to calculate each mean histomorphometrical value, whenever possible, in this histopathological evaluation (FIG. 4).

NH4OH exposured mice [4] = assay: Antitussive assay: NH4OH-induced coughing responses; format: in vivo; settings: 50 mg/kg orally, 11 days; compared with NH4OH control mice
Method: NH4OH treated mice: 34.17±1.32 g, ranged in 31.0-37.3 g), as follows. SKOG were suspended in distilled water as 40, 20 and 10 mg/ml concentration, and orally administered in a volume of 10 ml/kg (as equivalence to 400, 200 and 100 mg/kg), once a day for 11 days before NH4OH exposure. In addition, AR and KOG were also suspended in distilled water as 40 mg/ml concentration, and orally administered in a volume of 10 ml/kg (as equivalence to 400, 200 and 100 mg/kg), once a day for 11 days before NH4OH exposure. TB was also dissolved in distilled water as 5 mg/ml concentrations, and also orally administered in a volume of 10 ml/kg (as equivalence to 50 mg/kg), once a day for 11 days before NH4OH exposure. In intact vehicle and NH4OH control mice, distilled water 10 ml/kg was orally administered, instead of AR, KOG, SKOG or TB to provide same restrain stresses, in the present experiment. Coughing was induced by single inhalation of 25% NH4OH (Sigma-Aldrich, St. […] Individual intact vehicle control mouse was exposured to 0.3 ml of saline contained 1,000 ml glass Erlenmeyer flask for 45 sec, instead of NH4OH, in this experiment. The criteria to define cough in mice is that opening the mouth accompanying sound of coughing, contraction of thoracic and abdomen muscles, and a jerking of the front body.

[5] = compared with NH4OH control mice

Cn1cnc2c1c(=O)[nH]c(=O)n2C [TB, theobromine]
Cells Inflammatory (ear dermis) [1]: 10.10 ± 10.54^fh Numbers/mm^2
Cells Mast (ear dermis) [1]: 61.30 ± 12.65^c Numbers/mm^2
Collagen fiber [1]: 77.43 ± 12.79^h %/mm^2 of dermis
Thickness Dermis (ear) [1]: 52.33 ± 13.72^h μm
Thickness Epidermis (ear) [1]: 8.50 ± 1.65 μm
Thickness Total (ear) [1]: 99.55 ± 9.57^h μm
Body weight gains (g) [B − A] ([2]; 11 days, NH4OH exposured mice): 1.71 ± 0.97 g
Body weights (g) at test material administration First [A] ([2]; 11 days, NH4OH exposured mice): 29.23 ± 1.49 g
Body weights (g) at test material administration Last [B] ([2]; 11 days, NH4OH exposured mice): 30.94 ± 1.77 g
body weight gains during 11 days, change [2, 5]: 2.40%
Cells Inflammatory (trachea) (NH4OH exposured mice [3]; NH4OH exposured mice): 167.40 ± 40.26^hi Numbers/mm^2
Cells Mast (trachea) (NH4OH exposured mice [3]; NH4OH exposured mice): 14.30 ± 4.60^hi Numbers/mm^2
Diameter of lumen (trachea) (NH4OH exposured mice [3]; NH4OH exposured mice): 860.11 ± 100.75^ac μm
Thickness Epithelium (trachea) (NH4OH exposured mice [3]; NH4OH exposured mice): 24.21 ± 4.36^hi μm
Thickness Submucosa (trachea) (NH4OH exposured mice [3]; NH4OH exposured mice): 47.31 ± 11.39^hi μm
Thickness Total wall (trachea) (NH4OH exposured mice [3]; NH4OH exposured mice): 191.23 ± 10.24^hi μm
Alveolar surface area (NH4OH exposured mice [3]; NH4OH exposured mice, lung): 51.13 ± 5.95^ac %
Septum thickness (NH4OH exposured mice [3]; NH4OH exposured mice, lung): 30.53 ± 10.06^gh μm
inflammatory cells (alveolar septum) (NH4OH exposured mice [3]; NH4OH exposured mice, lung): 492.00 ± 114.18^gh numbers/mm^2
Mean ASA, change (NH4OH exposured mice [3]; [5]): 65.26%
Mean diameters of trachea lumen, change (NH4OH exposured mice [3]; [5]): 30.60%
Mean numbers of infiltrated inflammatory cells on the alveolar septum, change (NH4OH exposured mice [3]; [5]): −73.92%
Mean numbers of infiltrated inflammatory cells on the trachea, change (NH4OH exposured mice [3]; [5]): −62.74%
Mean numbers of infiltrated mast cells on the trachea, change (NH4OH exposured mice [3]; [5]): −63.05%
Mean thicknesses of alveolar septum, change (NH4OH exposured mice [3]; [5]): −57.84%
Mean thicknesses of trachea epithelium, change (NH4OH exposured mice [3]; [5]): −35.48%
Mean thicknesses of trachea submucosa, change (NH4OH exposured mice [3]; [5]): −47.27%
Mean thicknesses of trachea wall, change (NH4OH exposured mice [3]; [5]): −13.23%
Mean numbers of coughing responses during 6 min after 45 sec exposure of NH4OH, change (NH4OH exposured mice [4]): −59.04%
